Measured values: ChEMBL document CHEMBL4152382, “Discovery of Tarantula Venom-Derived NaV1.7-Inhibitory JzTx-V Peptide 5-Br-Trp24 Analogue AM-6120 with Systemic Block of Histamine-Induced Pruritis” (J Med Chem, 2018)

What was measured:
[1] = target: Sodium channel protein type 9 subunit alpha (Homo sapiens, UniProt Q15858); assay: Inhibition of human Nav1.7 expressed in HEK293 cells at holding potential of -125 mV […] by patchxpress-based electrophysiology assay; type: cell-based
[2] = target: Sodium channel protein type 4 subunit alpha (Homo sapiens, UniProt P35499); assay: Inhibition of human Nav1.4 expressed in HEK293 cells at holding potential of -125 mV […] by patchxpress-based electrophysiology assay; type: cell-based
Chain of Sodium channel protein type 4 subunit alpha (P35499 whole entry): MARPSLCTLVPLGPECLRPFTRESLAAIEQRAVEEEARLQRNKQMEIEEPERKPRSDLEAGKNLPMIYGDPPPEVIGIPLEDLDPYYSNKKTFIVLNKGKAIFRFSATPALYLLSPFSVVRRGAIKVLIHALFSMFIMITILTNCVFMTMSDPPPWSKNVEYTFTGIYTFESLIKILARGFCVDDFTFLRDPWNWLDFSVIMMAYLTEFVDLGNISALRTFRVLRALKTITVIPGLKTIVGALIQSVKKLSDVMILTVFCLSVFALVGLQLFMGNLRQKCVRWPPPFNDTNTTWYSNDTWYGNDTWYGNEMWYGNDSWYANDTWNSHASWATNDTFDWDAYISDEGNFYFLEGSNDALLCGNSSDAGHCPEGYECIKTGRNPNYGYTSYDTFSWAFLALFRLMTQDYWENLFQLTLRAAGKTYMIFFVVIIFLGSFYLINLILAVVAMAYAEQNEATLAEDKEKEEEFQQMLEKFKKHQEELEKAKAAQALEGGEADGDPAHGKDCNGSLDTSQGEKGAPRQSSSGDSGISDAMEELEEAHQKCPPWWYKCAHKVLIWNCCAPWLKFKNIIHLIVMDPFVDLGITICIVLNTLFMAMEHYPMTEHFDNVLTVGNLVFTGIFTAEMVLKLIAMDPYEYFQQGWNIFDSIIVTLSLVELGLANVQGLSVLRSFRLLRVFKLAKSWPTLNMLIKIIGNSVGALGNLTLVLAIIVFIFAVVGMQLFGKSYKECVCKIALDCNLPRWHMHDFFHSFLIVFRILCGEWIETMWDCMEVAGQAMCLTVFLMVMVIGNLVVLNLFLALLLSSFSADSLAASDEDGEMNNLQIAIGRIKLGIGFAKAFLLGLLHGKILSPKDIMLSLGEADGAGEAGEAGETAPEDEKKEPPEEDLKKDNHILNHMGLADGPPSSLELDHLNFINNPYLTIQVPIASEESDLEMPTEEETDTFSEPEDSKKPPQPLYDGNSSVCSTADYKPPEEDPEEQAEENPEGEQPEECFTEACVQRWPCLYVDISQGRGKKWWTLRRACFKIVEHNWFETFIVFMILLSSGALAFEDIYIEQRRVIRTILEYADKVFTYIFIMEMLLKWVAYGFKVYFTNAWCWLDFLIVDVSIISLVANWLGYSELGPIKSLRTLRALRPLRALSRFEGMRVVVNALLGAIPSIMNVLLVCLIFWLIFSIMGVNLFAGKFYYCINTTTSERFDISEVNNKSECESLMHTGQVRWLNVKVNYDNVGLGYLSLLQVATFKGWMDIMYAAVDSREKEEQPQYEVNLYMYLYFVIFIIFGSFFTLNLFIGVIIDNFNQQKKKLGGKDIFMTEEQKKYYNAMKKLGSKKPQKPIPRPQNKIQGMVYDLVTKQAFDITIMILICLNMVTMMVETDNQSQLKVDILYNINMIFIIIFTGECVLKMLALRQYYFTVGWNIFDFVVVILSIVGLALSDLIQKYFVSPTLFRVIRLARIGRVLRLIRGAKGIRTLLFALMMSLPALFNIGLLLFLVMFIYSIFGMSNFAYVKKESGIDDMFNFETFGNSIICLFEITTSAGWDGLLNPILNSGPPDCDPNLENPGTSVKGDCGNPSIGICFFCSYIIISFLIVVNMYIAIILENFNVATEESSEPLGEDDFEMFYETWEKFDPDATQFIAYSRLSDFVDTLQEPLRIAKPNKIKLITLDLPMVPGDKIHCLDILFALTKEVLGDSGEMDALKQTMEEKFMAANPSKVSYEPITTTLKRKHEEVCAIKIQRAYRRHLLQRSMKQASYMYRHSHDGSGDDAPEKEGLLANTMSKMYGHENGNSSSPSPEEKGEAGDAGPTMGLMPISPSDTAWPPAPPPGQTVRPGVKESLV

Chain of Sodium channel protein type 9 subunit alpha (Q15858 whole entry): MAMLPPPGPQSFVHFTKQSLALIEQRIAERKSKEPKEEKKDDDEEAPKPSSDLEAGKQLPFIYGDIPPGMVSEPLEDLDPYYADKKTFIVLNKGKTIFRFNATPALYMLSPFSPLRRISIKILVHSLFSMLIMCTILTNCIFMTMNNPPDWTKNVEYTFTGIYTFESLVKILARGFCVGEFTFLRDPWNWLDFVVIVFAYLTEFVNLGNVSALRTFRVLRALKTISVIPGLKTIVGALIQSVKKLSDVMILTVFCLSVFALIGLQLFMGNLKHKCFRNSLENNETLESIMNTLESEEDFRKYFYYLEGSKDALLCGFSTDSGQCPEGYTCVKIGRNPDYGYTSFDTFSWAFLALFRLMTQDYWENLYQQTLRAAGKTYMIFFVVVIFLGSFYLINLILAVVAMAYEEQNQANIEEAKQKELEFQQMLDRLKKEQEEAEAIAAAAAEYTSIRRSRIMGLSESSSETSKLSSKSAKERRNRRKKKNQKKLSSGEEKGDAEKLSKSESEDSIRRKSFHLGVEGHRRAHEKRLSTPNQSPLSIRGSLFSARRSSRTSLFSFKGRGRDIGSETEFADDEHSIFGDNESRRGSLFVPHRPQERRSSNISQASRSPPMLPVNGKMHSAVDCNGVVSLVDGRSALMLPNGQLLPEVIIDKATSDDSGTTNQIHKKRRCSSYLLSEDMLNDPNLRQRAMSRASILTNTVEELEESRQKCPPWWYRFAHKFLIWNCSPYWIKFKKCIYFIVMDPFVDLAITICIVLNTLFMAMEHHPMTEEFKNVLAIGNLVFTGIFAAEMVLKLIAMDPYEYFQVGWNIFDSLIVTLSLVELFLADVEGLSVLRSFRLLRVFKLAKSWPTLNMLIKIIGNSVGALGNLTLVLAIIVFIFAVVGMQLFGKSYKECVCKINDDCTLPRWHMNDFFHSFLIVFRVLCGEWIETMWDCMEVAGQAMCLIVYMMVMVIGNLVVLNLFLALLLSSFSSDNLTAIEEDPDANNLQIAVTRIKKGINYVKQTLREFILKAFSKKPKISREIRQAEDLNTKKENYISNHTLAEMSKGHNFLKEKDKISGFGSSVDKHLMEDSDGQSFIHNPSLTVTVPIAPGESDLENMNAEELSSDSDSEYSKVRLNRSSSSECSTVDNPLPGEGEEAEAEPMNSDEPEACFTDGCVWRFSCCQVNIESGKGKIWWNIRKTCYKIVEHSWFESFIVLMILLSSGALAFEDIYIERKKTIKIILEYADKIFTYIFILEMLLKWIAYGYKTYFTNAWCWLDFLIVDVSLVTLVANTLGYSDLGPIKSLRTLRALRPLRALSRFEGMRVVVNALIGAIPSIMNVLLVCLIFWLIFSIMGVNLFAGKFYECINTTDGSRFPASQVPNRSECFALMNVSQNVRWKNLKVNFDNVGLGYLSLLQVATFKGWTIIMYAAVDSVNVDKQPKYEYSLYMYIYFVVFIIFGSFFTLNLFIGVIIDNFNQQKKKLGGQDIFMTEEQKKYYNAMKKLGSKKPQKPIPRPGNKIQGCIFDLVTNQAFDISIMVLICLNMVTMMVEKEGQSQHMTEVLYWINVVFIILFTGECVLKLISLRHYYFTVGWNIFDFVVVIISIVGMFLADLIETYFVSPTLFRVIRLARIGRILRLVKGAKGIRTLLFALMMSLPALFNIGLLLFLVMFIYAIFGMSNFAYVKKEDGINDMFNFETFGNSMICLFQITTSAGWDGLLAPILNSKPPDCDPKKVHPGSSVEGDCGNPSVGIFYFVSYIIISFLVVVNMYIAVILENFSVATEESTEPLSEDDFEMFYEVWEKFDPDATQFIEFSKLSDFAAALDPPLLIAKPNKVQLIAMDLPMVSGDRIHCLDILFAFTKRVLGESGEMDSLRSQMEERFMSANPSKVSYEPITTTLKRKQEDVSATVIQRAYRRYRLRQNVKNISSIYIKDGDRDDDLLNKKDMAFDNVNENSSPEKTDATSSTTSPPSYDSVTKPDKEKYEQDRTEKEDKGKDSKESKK

Q: Which results are given for C#CC[C@H](N)C(=O)N[C@@H](Cc1ccc(O)cc1)C(=O)N[C@H]1CSSC[C@@H]2NC(=O)[C@@H]3CSSC[C@@H](C(=O)N[C@@H](CCCNC(=N)N)C(=O)N[C@@H](CCCCN)C(=O)N[C@@H](CCC(=O)O)C(=O)N[C@H](C(N)=O)[C@@H](C)CC)NC(=O)[C@H](Cc4c[nH]c5ccccc45)NC(=O)[C@H](CC(C)C)NC(=O)[C@H](CCCCN)NC(=O)[C@H](CSSC[C@H](NC(=O)[C@H]([C@@H](C)O)NC(=O)[C@H](Cc4c[nH]c5ccccc45)NC(=O)[C@H](CCCC)NC(=O)[C@H](Cc4ccccc4)NC(=O)[C@H](CCCCN)NC(=O)[C@H](CCC(N)=O)NC1=O)C(=O)N[C@@H](CC(=O)O)C(=O)N[C@@H](CO)C(=O)N[C@@H](CCCCN)C(=O)N[C@@H](CCCNC(=N)N)C(=O)N[C@@H](C)C(=O)N3)NC(=O)[C@H](CCCNC(=N)N)NC(=O)[C@H](CC(C)C)NC(=O)CNC(=O)[C@H](CCC(=O)O)NC2=O?
A: IC50 [1]: 1.3 nM; IC50 [2]: 52 nM

Q: Which results are given for C#CC[C@H](N)C(=O)N[C@@H](Cc1ccc(O)cc1)C(=O)N[C@H]1CSSC[C@@H]2NC(=O)[C@@H]3CSSC[C@@H](C(=O)N[C@@H](CCCNC(=N)N)C(=O)N[C@@H](CCCCN)C(=O)N[C@@H](CCC(=O)O)C(=O)N[C@@H](Cc4c[nH]c5ccccc45)C(N)=O)NC(=O)[C@H](Cc4c[nH]c5ccccc45)NC(=O)[C@H](CC(C)C)NC(=O)[C@H](CCCCN)NC(=O)[C@H](CSSC[C@H](NC(=O)[C@H]([C@@H](C)O)NC(=O)[C@H](Cc4c[nH]c5ccccc45)NC(=O)[C@H](CCCC)NC(=O)[C@H](Cc4c[nH]c5ccccc45)NC(=O)[C@H](CCCCN)NC(=O)[C@H](CCC(N)=O)NC1=O)C(=O)N[C@@H](CC(=O)O)C(=O)N[C@@H](CO)C(=O)N[C@@H](CCCCN)C(=O)N[C@@H](CCCNC(=N)N)C(=O)N[C@@H](C)C(=O)N3)NC(=O)[C@H](CCCNC(=N)N)NC(=O)[C@H](CC(C)C)NC(=O)CNC(=O)[C@H](CCC(=O)O)NC2=O?
A: IC50 [1]: 0.2 nM; IC50 [2]: 92 nM

Q: For C#CC[C@H](NC(=O)[C@@H](N)CCC(=O)O)C(=O)N[C@H]1CSSC[C@@H]2NC(=O)[C@@H]3CSSC[C@@H](C(=O)N[C@@H](CCCNC(=N)N)C(=O)N[C@@H](CCCCN)C(=O)N[C@@H](CCC(=O)O)C(=O)N[C@H](C(N)=O)[C@@H](C)CC)NC(=O)[C@H](Cc4c[nH]c5ccc(Br)cc45)NC(=O)[C@H](CC(C)C)NC(=O)[C@H](CCCCN)NC(=O)[C@H](CSSC[C@H](NC(=O)[C@H]([C@@H](C)O)NC(=O)[C@H](Cc4c[nH]c5ccccc45)NC(=O)[C@H](CCCC)NC(=O)[C@H](Cc4c[nH]c5ccccc45)NC(=O)[C@H](CCCCN)NC(=O)[C@H](CCC(N)=O)NC1=O)C(=O)N[C@@H](CC(=O)O)C(=O)N[C@@H](CCC(=O)O)C(=O)N[C@@H](CCCCN)C(=O)N[C@@H](CCCNC(=N)N)C(=O)N[C@@H](C)C(=O)N3)NC(=O)[C@H](CCCNC(=N)N)NC(=O)[C@H](CC(C)C)NC(=O)CNC(=O)[C@H](CCC(=O)O)NC2=O, which IC50 [1] is on record?
A: 2.5 nM

Q: What about the IC50 [2] of the same compound?
A: 89 nM

Q: How did the IC50 [1] turn out when C#CC[C@H](N)C(=O)N[C@@H](Cc1ccc(O)cc1)C(=O)N[C@H]1CSSC[C@@H]2NC(=O)[C@@H]3CSSC[C@@H](C(=O)N[C@@H](CCCNC(=N)N)C(=O)N[C@@H](CCCCN)C(=O)N[C@@H](CCC(=O)O)C(=O)N[C@H](C(N)=O)[C@@H](C)CC)NC(=O)[C@H](Cc4c[nH]c5cc(C)ccc45)NC(=O)[C@H](CC(C)C)NC(=O)[C@H](CCCCN)NC(=O)[C@H](CSSC[C@H](NC(=O)[C@H]([C@@H](C)O)NC(=O)[C@H](Cc4c[nH]c5ccccc45)NC(=O)[C@H](CCCC)NC(=O)[C@H](Cc4c[nH]c5ccccc45)NC(=O)[C@H](CCCCN)NC(=O)[C@H](CCC(N)=O)NC1=O)C(=O)N[C@@H](CC(=O)O)C(=O)N[C@@H](CO)C(=O)N[C@@H](CCCCN)C(=O)N[C@@H](CCCNC(=N)N)C(=O)N[C@@H](C)C(=O)N3)NC(=O)[C@H](CCCNC(=N)N)NC(=O)[C@H](CC(C)C)NC(=O)CNC(=O)[C@H](CCC(=O)O)NC2=O was run?
A: 19 nM

Q: Which IC50 [1] does the source give for C#CC[C@H](N)C(=O)N[C@@H](Cc1ccc(O)cc1)C(=O)N[C@H]1CSSC[C@@H]2NC(=O)[C@@H]3CSSC[C@@H](C(=O)N[C@@H](CCCNC(=N)N)C(=O)N[C@@H](CCCCN)C(=O)N[C@@H](CCC(=O)O)C(=O)N[C@H](C(N)=O)[C@@H](C)CC)NC(=O)[C@H](Cc4c[nH]c5ccccc45)NC(=O)[C@H](CCCC)NC(=O)[C@H](CCCCN)NC(=O)[C@H](CSSC[C@H](NC(=O)[C@H]([C@@H](C)O)NC(=O)[C@H](Cc4c[nH]c5ccccc45)NC(=O)[C@H](CCCC)NC(=O)[C@H](Cc4c[nH]c5ccccc45)NC(=O)[C@H](CCCCN)NC(=O)[C@H](CCC(N)=O)NC1=O)C(=O)N[C@@H](CC(=O)O)C(=O)N[C@@H](CO)C(=O)N[C@@H](CCCCN)C(=O)N[C@@H](CCCNC(=N)N)C(=O)N[C@@H](C)C(=O)N3)NC(=O)[C@H](CCCNC(=N)N)NC(=O)[C@H](CC(C)C)NC(=O)CNC(=O)[C@H](CCC(=O)O)NC2=O here?
A: 1.7 nM

Q: Which IC50 [1] does the source give for C#CC[C@H](NC(=O)[C@@H](N)CCCCN)C(=O)N[C@H]1CSSC[C@@H]2NC(=O)[C@@H]3CSSC[C@@H](C(=O)N[C@@H](CCCNC(=N)N)C(=O)N[C@@H](CCCCN)C(=O)N[C@@H](CCC(=O)O)C(=O)N[C@H](C(N)=O)[C@@H](C)CC)NC(=O)[C@H](Cc4c[nH]c5ccc(Br)cc45)NC(=O)[C@H](CC(C)C)NC(=O)[C@H](CCCCN)NC(=O)[C@H](CSSC[C@H](NC(=O)[C@H]([C@@H](C)O)NC(=O)[C@H](Cc4c[nH]c5ccccc45)NC(=O)[C@H](CCCC)NC(=O)[C@H](Cc4c[nH]c5ccccc45)NC(=O)[C@H](CCCCN)NC(=O)[C@H](CCC(N)=O)NC1=O)C(=O)N[C@@H](CC(=O)O)C(=O)N[C@@H](CO)C(=O)N[C@@H](CCCCN)C(=O)N[C@@H](CCCNC(=N)N)C(=O)N[C@@H](C)C(=O)N3)NC(=O)[C@H](CCCNC(=N)N)NC(=O)[C@H](CC(C)C)NC(=O)CNC(=O)[C@H](CCC(=O)O)NC2=O here?
A: 5.7 nM

Q: With C#CC[C@H](N)C(=O)N[C@@H](Cc1ccc(O)cc1)C(=O)N[C@H]1CSSC[C@@H]2NC(=O)[C@@H]3CSSC[C@@H](C(=O)N[C@@H](CCCNC(=N)N)C(=O)N[C@@H](CCCCN)C(=O)N[C@@H](CCC(=O)O)C(=O)N[C@H](C(N)=O)[C@@H](C)CC)NC(=O)[C@H](Cc4c[nH]c5ccccc45)NC(=O)[C@H](CC(C)C)NC(=O)[C@H](CCCCN)NC(=O)[C@H](CSSC[C@H](NC(=O)[C@H]([C@@H](C)O)NC(=O)[C@H](Cc4c[nH]c5ccccc45)NC(=O)[C@H](CCCC)NC(=O)[C@H](Cc4ccc5ccccc5c4)NC(=O)[C@H](CCCCN)NC(=O)[C@H](CCC(N)=O)NC1=O)C(=O)N[C@@H](CC(=O)O)C(=O)N[C@@H](CO)C(=O)N[C@@H](CCCCN)C(=O)N[C@@H](CCCNC(=N)N)C(=O)N[C@@H](C)C(=O)N3)NC(=O)[C@H](CCCNC(=N)N)NC(=O)[C@H](CC(C)C)NC(=O)CNC(=O)[C@H](CCC(=O)O)NC2=O as the compound, how does the IC50 [1] read?
A: 22 nM

Q: For C#CC[C@H](N)C(=O)N[C@@H](Cc1ccc(O)cc1)C(=O)N[C@H]1CSSC[C@@H]2NC(=O)[C@@H]3CSSC[C@@H](C(=O)N[C@@H](CCCNC(=N)N)C(=O)N[C@@H](CCCCN)C(=O)N[C@@H](CCC(=O)O)C(=O)N[C@@H](CCc4ccccc4)C(N)=O)NC(=O)[C@H](Cc4c[nH]c5ccc(Br)cc45)NC(=O)[C@H](CC(C)C)NC(=O)[C@H](CCCCN)NC(=O)[C@H](CSSC[C@H](NC(=O)[C@H]([C@@H](C)O)NC(=O)[C@H](Cc4c[nH]c5ccccc45)NC(=O)[C@H](CCCC)NC(=O)[C@H](Cc4c[nH]c5ccccc45)NC(=O)[C@H](CCCCN)NC(=O)[C@H](CCC(N)=O)NC1=O)C(=O)N[C@@H](CC(=O)O)C(=O)N[C@@H](CO)C(=O)N[C@@H](CCCCN)C(=O)N[C@@H](CCCNC(=N)N)C(=O)N[C@@H](C)C(=O)N3)NC(=O)[C@H](CCCNC(=N)N)NC(=O)[C@H](CC(C)C)NC(=O)CNC(=O)[C@H](CCC(=O)O)NC2=O, which IC50 [1] is on record?
A: 1.1 nM

Q: How did the IC50 [1] turn out when C#CC[C@H](N)C(=O)N[C@@H](Cc1ccc(O)cc1)C(=O)N[C@H]1CSSC[C@@H]2NC(=O)[C@@H]3CSSC[C@@H](C(=O)N[C@@H](CCCNC(=N)N)C(=O)N[C@@H](CCCCN)C(=O)N[C@@H](CCC(=O)O)C(=O)N[C@H](C(N)=O)[C@@H](C)CC)NC(=O)[C@H](Cc4c[nH]c5ccccc45)NC(=O)[C@H]([C@@H](C)CC)NC(=O)[C@H](CCCCN)NC(=O)[C@H](CSSC[C@H](NC(=O)[C@H]([C@@H](C)O)NC(=O)[C@H](Cc4c[nH]c5ccccc45)NC(=O)[C@H](CCCC)NC(=O)[C@H](Cc4c[nH]c5ccccc45)NC(=O)[C@H](CCCCN)NC(=O)[C@H](CCC(N)=O)NC1=O)C(=O)N[C@@H](CC(=O)O)C(=O)N[C@@H](CO)C(=O)N[C@@H](CCCCN)C(=O)N[C@@H](CCCNC(=N)N)C(=O)N[C@@H](C)C(=O)N3)NC(=O)[C@H](CCCNC(=N)N)NC(=O)[C@H](CC(C)C)NC(=O)CNC(=O)[C@H](CCC(=O)O)NC2=O was run?
A: 1.1 nM

Q: For C#CC[C@H](N)C(=O)N[C@@H](Cc1ccc(O)cc1)C(=O)N[C@H]1CSSC[C@@H]2NC(=O)[C@@H]3CSSC[C@@H](C(=O)N[C@@H](CCCNC(=N)N)C(=O)N[C@@H](CCCCN)C(=O)N[C@@H](CCC(=O)O)C(=O)N[C@@H](Cc4ccccc4)C(N)=O)NC(=O)[C@H](Cc4c[nH]c5ccc(Br)cc45)NC(=O)[C@H](CC(C)C)NC(=O)[C@H](CCCCN)NC(=O)[C@H](CSSC[C@H](NC(=O)[C@H]([C@@H](C)O)NC(=O)[C@H](Cc4c[nH]c5ccccc45)NC(=O)[C@H](CCCC)NC(=O)[C@H](Cc4c[nH]c5ccccc45)NC(=O)[C@H](CCCCN)NC(=O)[C@H](CCC(N)=O)NC1=O)C(=O)N[C@@H](CC(=O)O)C(=O)N[C@@H](CO)C(=O)N[C@@H](CCCCN)C(=O)N[C@@H](CCCNC(=N)N)C(=O)N[C@@H](C)C(=O)N3)NC(=O)[C@H](CCCNC(=N)N)NC(=O)[C@H](CC(C)C)NC(=O)CNC(=O)[C@H](CCC(=O)O)NC2=O, which IC50 [1] is on record?
A: 1.1 nM
